Reference: PubChem BioAssay AID1645868 (Buhrlage Lab, Dana-Farber Cancer Institute and Novartis …, 2021)
The source made the active and inactive calls.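 Rule for the calls: active = maximal percent inhibition of the deubiquitinase OTUD3 of at least 30% across the tested doses; inactive = the rest.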

Target: OTU domain-containing protein 3 (Homo sapiens) (UniProt Q5T2D3)
Assay: Validation of screening hits, potency titration, in vitro enzymatic, OTU domain-containing protein 3 DUB inhibitors (AID 1645868)
Conditions: purified OTUD3, ubiquitin-rhodamine cleavage fluorescence, 2 h

OTU domain-containing protein 3 (Homo sapiens), sequence (Q5T2D3 whole entry, looked up, the tested form may be a part): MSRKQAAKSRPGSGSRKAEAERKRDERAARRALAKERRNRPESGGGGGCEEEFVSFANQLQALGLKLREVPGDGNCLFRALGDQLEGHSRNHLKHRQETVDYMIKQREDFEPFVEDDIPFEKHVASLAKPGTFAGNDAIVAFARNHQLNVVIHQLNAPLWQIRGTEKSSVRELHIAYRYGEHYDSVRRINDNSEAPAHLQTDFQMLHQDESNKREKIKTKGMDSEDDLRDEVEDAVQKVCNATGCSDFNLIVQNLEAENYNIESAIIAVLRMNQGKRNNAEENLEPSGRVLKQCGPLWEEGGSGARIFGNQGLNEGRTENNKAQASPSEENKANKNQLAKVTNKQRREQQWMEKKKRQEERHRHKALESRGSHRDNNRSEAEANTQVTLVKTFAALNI

Cc1ccc(C(=O)c2cn(CC(=O)Nc3ccccc3)c3ccc(C)cc3c2=O)cc1
IC50: 21.1 µM

Fc1ccc(-c2noc(-c3nnc(NCc4cccnc4)c4ccccc34)n2)cc1
IC50: > 50 µM (inactive)

CCc1cc2cc3c(cc2nc1SCC(=O)Nc1cccc(C(C)=O)c1)OCO3
IC50: 26.5 µM

CC1CCc2c(sc3ncnc(OCc4cccc([N+](=O)[O-])c4)c23)C1 (centres undefined)
IC50: > 50 µM (inactive)

CC1CCc2sc(NC(=O)c3ccccc3Oc3ccccc3)c(C(N)=O)c2C1 (centres undefined)
IC50: 31.6 µM

CC(C)c1cc2c(c(O)c1O)[C@@]13CCCC(C)(C)[C@@H]1C[C@@H]2OC3=O
IC50: 28.1 µM

COc1cccc(Cn2nc3n(CC(C)C)c(=O)c4ccc(C(=O)NCC(C)C)cc4n3c2=O)c1
IC50: 10.2 µM

O=C(O)c1ccc(C2Cc3c([nH]c(=O)[nH]c3=O)O2)cc1 (centres undefined)
IC50: 26.5 µM

O=C(c1ccc2occc2c1)N1CCC(S(=O)(=O)c2ccc(-c3ccco3)cc2)CC1
IC50: > 50 µM (inactive)

CC(C)Cn1cc(OC(=O)c2ccc(F)cc2)c2c1nc(-c1ccc(F)cc1)n1c3ccccc3nc21
IC50: > 50 µM (inactive)

CC(=O)Nc1cc(-c2cccc(O)c2)cn2c(-c3cnn(C)c3)cnc12
IC50: > 50 µM (inactive)

Cc1nc(-c2ccc(NC(=O)N3CCN(c4ccccn4)CC3)cc2)no1
IC50: > 50 µM (inactive)

CCn1c(Cn2cccn2)nc2cc(NC(=O)c3ccc(F)cc3)ccc21
IC50: > 50 µM (inactive)

COc1cccc(NC(=O)Cc2sc(Nc3cc(C)cc(C)c3)nc2O)c1
IC50: 22.4 µM

Cc1nc2ccccn2c1C1(O)C(=O)Nc2c(Cl)cc(Cl)cc21 (centres undefined)
IC50: > 50 µM (inactive)

Cc1ccc2c(c1)-c1c(c(C(=O)N3CCN(c4ccccc4)CC3)nn1C)CS2
IC50: > 50 µM (inactive)

O=c1c2ccccc2ncn1C1CCN(S(=O)(=O)c2ccccc2F)CC1
IC50: > 50 µM (inactive)

Cc1ccc(-c2nc(Cn3cnc4ccccc4c3=O)cs2)cc1
IC50: 18.9 µM

Cc1nn(-c2cccc(F)c2)c2c1c(C)c(CCC(=O)NCc1ccccn1)c(=O)n2C
IC50: > 50 µM (inactive)

c1ccc(CN2CCN(c3nc4ccccc4n4nnnc34)CC2)cc1
IC50: > 50 µM (inactive)

Cc1cc(C2CC(=O)Nc3c2c(C)nn3-c2nc3ccccc3[nH]2)c(C)s1 (centres undefined)
IC50: > 50 µM (inactive)

O=C(c1cccnc1)N1CCC2(CC1)CC1(CO2)Nc2ccccc2-n2cccc21 (centres undefined)
IC50: > 50 µM (inactive)

O=[N+]([O-])c1ccccc1C(c1c[nH]c2ccccc12)c1c[nH]c2ccccc12
IC50: 49.4 µM

Cc1cc(N2CCC(NC(=O)NCc3ccc(F)cc3)C2=O)ccc1F (centres undefined)
IC50: 30.4 µM

O=c1c(S(=O)(=O)c2cc(F)cc(F)c2)c[nH]c2cc(Cl)ccc12
IC50: 40.1 µM

Cc1ccccc1C(=O)OCCN1C(=O)c2cccc3c(N4CCCCC4)ccc(c23)C1=O
IC50: > 50 µM (inactive)

O=C(COc1nsnc1N1CCOCC1)Nc1ccccc1F
IC50: > 50 µM (inactive)

CC(C)(C)C(=O)NC(c1ccccc1)c1nnc(N2CCOCC2)o1 (centres undefined)
IC50: > 50 µM (inactive)

COc1cc(NC(=O)Cn2c(=O)n(-c3ccc(CC(=O)NC4CCCC4)cc3)c(=O)c3ccccc32)cc(OC)c1
IC50: > 50 µM (inactive)

O=c1c2cnc3nc(-c4cccnc4)nn3c2ccn1CCc1ccccc1
IC50: > 50 µM (inactive)

Cc1noc(C)c1COc1cccc(C(=O)Nc2cc(Cl)ccc2-n2cncn2)c1
IC50: > 50 µM (inactive)

CS(=O)(=O)N1CCCN(c2nc3cc(Cl)ccc3n3cccc23)CC1
IC50: > 50 µM (inactive)

NS(=O)(=O)c1ccc(CNS(=O)(=O)c2ccc(-c3ccccn3)s2)cc1
IC50: 24.7 µM

Fc1cnc(N2CC[C@H]3CO[C@H](CNc4ncccn4)[C@H]3C2)nc1
IC50: > 50 µM (inactive)

O=S(=O)(Nc1ccc(O)cc1)c1ccc2oc3ccc(S(=O)(=O)Nc4ccc(O)cc4)cc3c2c1
IC50: 46.1 µM

FC(F)(F)c1cccc(N2CCN(c3nc4ccccc4n4nnnc34)CC2)c1
IC50: > 50 µM (inactive)

Cc1ccc(NC(=O)Cc2nnc3cc(-c4nc(C)no4)ccn23)cc1
IC50: 21.8 µM

O=C(c1ccsc1)N1CCC2(C1)Nc1cccnc1NC2=NC1CCCC1 (centres undefined)
IC50: > 50 µM (inactive)

COc1ccc(NC(=O)c2ccnc(Nc3ccc(OC)cc3)c2)cc1
IC50: > 50 µM (inactive)

CCCn1cc(C(=O)N2CCC3(CC2)CC2(CO3)Nc3ccccc3-n3cccc32)c(C)n1 (centres undefined)
IC50: > 50 µM (inactive)

O=C(CNc1ccc(F)c(Cl)c1)Nc1ccc2c(c1)OCCO2
IC50: > 50 µM (inactive)

O=C(Nc1ccc2c(c1)OCCO2)c1cc(CN2CCCC2)on1
IC50: > 50 µM (inactive)

CC1CCc2c(sc3nc(CC#N)[nH]c(=O)c23)C1 (centres undefined)
IC50: > 50 µM (inactive)

Cc1ccc2c(=O)c3c([nH]c2c1C)CCN(CC(=O)NCc1ccccc1)C3
IC50: > 50 µM (inactive)

CC1OC2CC(O)C1(O)C1=C2C(O)=C(C(N)=O)C(=N)C1=O (centres undefined)
IC50: > 50 µM (inactive)

O=C(NCc1ccc(F)cc1)C1CCCN(c2cnc3nccnc3c2)C1 (centres undefined)
IC50: > 50 µM (inactive)

CC(=O)N1CCc2cc(S(=O)(=O)NCCC(=O)Nc3cccc(C)c3C)ccc21
IC50: 23.3 µM

COc1ccc(NC(=O)Cn2c(CS(=O)(=O)c3ccc(C)cc3)nc3ccccc32)cc1
IC50: 25.7 µM

Cc1ccc2[nH]c(=O)c(CN(Cc3cccnc3)C(=O)c3cccc(Cl)c3)cc2c1
IC50: > 50 µM (inactive)

CCc1ccc(-c2nc(SCC(=O)Nc3ccc4[nH]c(=O)[nH]c4c3)n[nH]2)cc1
IC50: 40.7 µM

COc1ccc(CCC(=O)Nc2ncc(C)s2)cc1OC
IC50: > 50 µM (inactive)

O=C1C[C@@H]2O[C@H](CNC(=O)[C@@H]3CN(CCN3C(=O)C3CCOCC3)C(=O)[C@@H]3C[C@@H](CN3Cc3ccc(F)c(F)c3)N1)[C@@H](O)[C@H]2O
IC50: > 50 µM (inactive)

CSc1nc2ncn(CC(=O)Nc3cccc(Cl)c3)c(=O)c2s1
IC50: > 50 µM (inactive)

C[C@@]12c3ccc4c(c3C(=O)c3occ(c31)C(O)C[C@H]2O)CCC4=O (some centres undefined)
IC50: > 50 µM (inactive)

Cc1cccc(NC(=O)CN2C(=O)CC(c3ccccc3)S(=O)(=O)c3ccccc32)c1C (centres undefined)
IC50: 22.1 µM

N#Cc1ccc(NC(=O)Nc2cccn(Cc3c(F)cccc3Cl)c2=O)cc1
IC50: > 50 µM (inactive)

O=c1[nH]cccc1NS(=O)(=O)c1ccc(F)cc1
IC50: > 50 µM (inactive)

COc1cc2c(oc(=O)c3cc(C)cc(OC)c32)c2c([C@@H]3OC(C)[C@@H](O)[C@@](C)(O)C3O)ccc(O)c12 (some centres undefined)
IC50: > 50 µM (inactive)

Cc1cc(C)nc(-n2nc(C)c3c2NC(=O)CSC3c2ccc(F)cc2F)n1 (centres undefined)
IC50: 47.2 µM

Cc1cccc(NC(=O)Cn2c(=O)n(Cc3ccc(F)cc3)c(=O)c3sccc32)c1
IC50: 17.5 µM

CCc1ccc(C2c3c(oc4ccccc4c3=O)C(=O)N2c2nncs2)cc1 (centres undefined)
IC50: > 50 µM (inactive)

O=c1ncn(Cc2ccc3c(c2)OCO3)cc1-c1ncc(C(F)(F)F)cc1Cl
IC50: > 50 µM (inactive)

CN1C(=O)COc2cc(-c3noc(C(=O)NC4CCCCCC4)n3)ccc21
IC50: > 50 µM (inactive)

Cc1nc(Nc2c3ccccc3nc3ccccc23)sc1C
IC50: > 50 µM (inactive)

CC(C)(C)c1ccc(C(=O)Nc2ccc(Cn3cncn3)cc2)cc1
IC50: > 50 µM (inactive)

O=C(CSc1nnc(-c2ccncc2)n1Cc1ccccc1)c1ccc2[nH]c(O)cc2c1
IC50: > 50 µM (inactive)

Cc1nn(Cc2ccccc2)c(Cl)c1C(=O)NC1CCCc2ccccc21 (centres undefined)
IC50: > 50 µM (inactive)

Cc1oc(-c2ccc(C(=O)NCC3COCCO3)cc2)nc1CN1CCc2ccccc21 (centres undefined)
IC50: > 50 µM (inactive)

COCCNC(=O)c1ccn(-c2ccc3ccc(-c4cnn(C)c4)cn23)n1
IC50: > 50 µM (inactive)

COc1ccccc1CNC(=O)CCCCn1c(=O)c2ccccc2n(Cc2ccccc2C#N)c1=O
IC50: 16.9 µM

O=C(CSc1nc2cc(S(=O)(=O)Nc3ccccc3Cl)ccc2o1)Nc1ccc(N2CCOCC2)cc1
IC50: > 50 µM (inactive)

COc1cc(C(=O)OCc2csc(-c3ccccc3)n2)ccc1OCC(=O)Nc1ccc(F)cc1
IC50: > 50 µM (inactive)

Cc1cc(C)c2c(-n3cccc3)c(C(=O)NCCc3ccc(S(N)(=O)=O)cc3)sc2n1
IC50: > 50 µM (inactive)

COc1ccc(NC(=O)CC(=O)c2ccc([N+](=O)[O-])cc2)cc1S(=O)(=O)Nc1ccc(Cl)cc1
IC50: 35.5 µM

CC(C)(C)N=C1Nc2ncccc2NC12CCCN(C(=O)c1ccccc1)C2 (centres undefined)
IC50: > 50 µM (inactive)

CCN(CCCNC(=O)c1ccc(Cn2c(=O)[nH]c3ccccc3c2=O)cc1)c1ccccc1
IC50: 17.4 µM

O=C(COc1ccc(Cl)cc1Cl)Nc1ccccc1-c1nc2ccccc2[nH]1
IC50: 6.12 µM

O=S(=O)(c1ccc(F)cc1)N1CCCC1c1ccnc(Nc2cnccn2)n1 (centres undefined)
IC50: > 50 µM (inactive)

Cc1ccc(Nc2nc(Nc3cccc(Cl)c3)nc3nccnc23)cc1
IC50: > 50 µM (inactive)

COc1ccccc1NC(=O)Cn1cc(C(=O)c2ccc(C)cc2)c(=O)c2ccccc21
IC50: 39.5 µM

Cc1ccc(-c2nc(NC(=O)COc3ccc(Cl)cc3)no2)cc1
IC50: 20.6 µM

CCCC[C@@H](C)/C=C(C)/C=C(\C)C(=O)NC1=C[C@](O)(/C=C/C=C/C=C/C(=O)NC2=C(O)CCC2=O)[C@@H]2O[C@@H]2C1=O
IC50: 3.28 µM

Cc1ccc(Cn2c(=O)c3ccccc3n3c(CCC(=O)N4CCN(c5ccccn5)CC4)nnc23)cc1
IC50: 9.18 µM

O=C(CNC(=O)OCc1ccccc1)Nc1ccc(Br)cc1C(=O)c1ccccc1Cl
IC50: 13.4 µM

Cc1cccc(-c2noc(CCn3c(=O)[nH]c4ccccc4c3=O)n2)c1
IC50: > 50 µM (inactive)

CCn1cnc2c(-c3ccccc3)cn(CC(=O)NCc3ccc4c(c3)OCO4)c2c1=O
IC50: > 50 µM (inactive)

COc1ccc(NC(=O)c2sc(N3CCOCC3)nc2-c2ccccc2)c(OC)c1
IC50: 43.5 µM

NC(=O)c1nc(-c2cccc(F)c2)nc2c1[nH]c(=O)n2C1CCCCC1
IC50: > 50 µM (inactive)

O=C(Nc1ccc(-c2cn3ccsc3n2)cc1)c1ccc(Cl)c([N+](=O)[O-])c1
IC50: 5.01 µM

Cc1[nH]nc(NC(=O)C2COc3ccccc3O2)c1-c1ccccc1 (centres undefined)
IC50: 26.6 µM

CC(=O)c1ccc(NC(=O)CC2C(=O)Nc3nc4ccccc4n32)cc1 (centres undefined)
IC50: 37.2 µM

CCCC(=O)Nc1nc2ccc(CCC(=O)NCc3ccc(F)cc3)cc2s1
IC50: 35.6 µM

COc1cc(NC(=O)c2cc(-c3ccncc3)n(-c3ccc(F)cc3)n2)cc(OC)c1
IC50: > 50 µM (inactive)

Cc1cc(-c2cnc(N(C)C)nc2-c2ccc(CNC(=O)Cc3ccc(F)cc3)cc2)on1
IC50: > 50 µM (inactive)
